# Experimental data from patent publication US4758580A, “Inhibiting growth of tumors with certain substituted phenoxy dimethyl alkanoic acids, esters or salts” (Yamanouchi Pharmaceutical Co., Ltd., priority 1985, dated 1988).
# Tests used:
# [1] = system: L-1210; test: In vitro cytotoxicity against mouse tumor cells, L-1210; format: cell-based; conditions: L1210, 72 h, L-1210, 3 days, 37° C., trypan blue, read-out: IC50
# Description: (§1) A suspension of cells in a culture medium was transferred into wells in a microplate in an amount of 1×10^5 cells/wall. Test sample diluted with a culture medium was added to the suspension in each well, and the mixture was incubated on the medium at 37° C. for 3 days in atmosphere of air containing 5% carbon dioxide. Thereafter, the incubated cells were recovered from the microplate and the number of live cells was counted by the dye exclusion test using a 0.5% solution of trypan blue and by using a hemocytomer.
# [2] = system: Ehrlich ascites tumor; test: Anti-tumor effect against Ehrlich ascites tumor; format: in vivo, ddY/SLC mice
# Description: Ehlrich tumor cells, 1×10^6, on Day 7 after intraperitoneal transplantation to ddY/SLC mice were intraperitoneally transplanted to ddY/SLC mice (5 week age, male) of 10 mice each being grouped in one. The active component was intraperitoneally administered in a definite dose 24 hours after the transplantation according to the schedule shown in Table 4. An effect of tumor growth inhibition was evaluated by a percentage of the median survival day of the administered group versus that of the control group, according to the following equation.
# T: median survival day of the administered group
# C: median survival day of the control group
# [3] = system: Bowes (melanoma); test: In vitro cytotoxicity against human tumor cells, Bowes; format: cell-based; conditions: 72 h, Bowes, 3 days, 37° C., crystalviolet, read-out: IC50
# Description: (§2) A suspension of cells in a culture medium was transferred into wells in a microplate in an amount of 5×10^4 cells/well. Test sample diluted with a culture medium was added to the suspension in each well, and the mixture was incubated at 37° C. for 3 days in an atmosphere of air containing 5% carbon dioxide. After skimming, sticking cells were dyed which crystalviolet for 10 minutes. After washing with water, 1% sodium lauryl sulfate solution was added to each well, and the absrobancy (optical density) at […] was measured. "% inhibition" was calculated from the following equation. [formula]
# [4] = system: melanoma BL-6; test: Inhibition of experimental metastasis (to the lung) of melanoma BL-6 in mice; format: in vivo, male BDF1 /SLC mice; conditions: 22th day
# Description: (b) Inhibition of experimental metastasis (to the lung) of melanoma BL-6 in mice
# BL-6 cancer cells, 5×10^4, were inoculated into the tail veins of male BDF1 /SLC mice (6 week age) of 6 mice each being grouped in one (13 mice for the control group). The test compounds were administered orally in a definite dose 24 hours after the inoculation. In order to see metastasis-inhibitory effect, on 22th day after the inoculation, the mice were anatomised to observe the metastasis to the lungs. The degree of metastasis was evaluated by the number of pulmonary nodules. [formula] T: Median number of pulmonary nodules of the administered group C: Median number of pulmonary nodules of the control group
# [5] = system: MM 46 (mammary cancer); test: In vitro cytotoxicity against mouse tumor cells, MM 46; format: cell-based; conditions: 72 h, 3 days, 37° C., trypan blue
# Description: as §1
# [6] = system: MM-46 solid tumor; test: Test against mouse mammalian MM-46 solid tumor; format: in vivo, C3 H/He/SLC mice; conditions: 1-9 Days
# Description: MM-46 Tumor cells, 1×10^6, on Day 7 after intraperitoneal transplantation to C3 H/He/SLC mice were subcutaneously transplanted to the left abdomen of C3 H/He/SLC mice (5 week age, male) of 8 mice each being grouped in one (21 mice for the control group). The active component was orally administered in a definite dose 24 hours after the transplantation according to the schedule shown in Table 2. An effect of tumor growth inhibition was compared by measuring the long diameter and short diameter of the tumor on Days 14 and 21 after the transplantation, calculating the tumor size (mm^2) and determining a tumor growth inhibition rate of the active component-administered group to the control group.
# [7] = system: MH 134 (liver cancer); test: In vitro cytotoxicity against mouse tumor cells, MH 134; format: cell-based; conditions: 72 h, MH 134, 3 days, 37° C., trypan blue, read-out: IC50
# Description: as §1
# [8] = system: ACHN (kidney cancer); test: In vitro cytotoxicity against human tumor cells, ACHN; format: cell-based; conditions: 72 h, 3 days, 37° C., crystalviolet, read-out: IC50
# Description: as §2
# [9] = 100 mg/kg i.p., 1, 3, 6, 8 & 10 Days
# [10] = 200 mg/kg oral, 1, 2, 3, 5, 6, 7, 8, 9 and 10 days
# [11] = 400 mg/kg oral, 1, 2, 3, 5, 6, 7, 8, 9 and 10 days
smiles,measurement,setting,value
CCOC(=O)C(C)(C)CCCCOc1ccc(OCCCCCn2ccnc2)cc1 [Compound B],IC50,[1],1.9 µg/mL
same,Median Survival Day,"[2]; 15 mg/kg i.p., 1-9 Days",16.0 days
same,No. of 40-day Survivors,"[2]; 15 mg/kg i.p., 1-9 Days",0/8
same,T/C (median survival),"[2]; 15 mg/kg i.p., 1-9 Days",106%
same,Median Survival Day,"[2]; 30 mg/kg i.p., 1-9 Days",22.5 days
same,No. of 40-day Survivors,"[2]; 30 mg/kg i.p., 1-9 Days",1/8
same,T/C (median survival),"[2]; 30 mg/kg i.p., 1-9 Days",150.0%
same,Median Survival Day,"[2]; 60 mg/kg i.p., 1-9 Days",21.5 days
same,No. of 40-day Survivors,"[2]; 60 mg/kg i.p., 1-9 Days",2/8
same,T/C (median survival),"[2]; 60 mg/kg i.p., 1-9 Days",143.3%
same,Median Survival Day,[2]; [9],26.5 days
same,No. of 40-day Survivors,[2]; [9],2/8
same,T/C (median survival),[2]; [9],176.7%
same,IC50,[3],1 µg/mL
same,Pulmonary metastasis-inhibition rate,[4]; [10],50.0%
same,"The number of pulmonary nodules, median",[4]; [10],10.5
same,"The number of pulmonary nodules, range",[4]; [10],1-20
same,Pulmonary metastasis-inhibition rate,[4]; [11],69.0%
same,"The number of pulmonary nodules, median",[4]; [11],6.5
same,"The number of pulmonary nodules, range",[4]; [11],1-14
same,IC50,[5],0.7 µg/mL
same,Growth Inhibition Rate,"[6]; Day 14, 100 mg/kg p.o.",40.4%
same,Size of Tumor,"[6]; Day 14, 100 mg/kg p.o.",150.1 ± 52.1 mm^2
same,Growth Inhibition Rate,"[6]; Day 14, 200 mg/kg p.o.",41.3%
same,Size of Tumor,"[6]; Day 14, 200 mg/kg p.o.",147.9 ± 56.2 mm^2
same,Growth Inhibition Rate,"[6]; Day 14, 400 mg/kg p.o.",47.8%
same,Size of Tumor,"[6]; Day 14, 400 mg/kg p.o.",131.5 ± 55.2 mm^2
same,Growth Inhibition Rate,"[6]; Day 21, 100 mg/kg p.o.",55.8%
same,Size of Tumor,"[6]; Day 21, 100 mg/kg p.o.",149.4 ± 84.8 mm^2
same,Growth Inhibition Rate,"[6]; Day 21, 200 mg/kg p.o.",53.4%
same,Size of Tumor,"[6]; Day 21, 200 mg/kg p.o.",147.5 ± 65.3 mm^2
same,Growth Inhibition Rate,"[6]; Day 21, 400 mg/kg p.o.",53.4%
same,Size of Tumor,"[6]; Day 21, 400 mg/kg p.o.",157.4 ± 104.0 mm^2
same,IC50,[7],2.2 µg/mL
same,IC50,[8],2.3 µg/mL
